In PMC4811591, “Role of the Substrate Specificity-Defining Residues of Human SIRT5 in Modulating the Structural Stability and Inhibitory Features of the Enzyme” (PLoS ONE, 2016):
Positions count from the first letter of the chain named.

What was measured:
SIRT1 [1] = target: T1, SIRT1 (Homo sapiens, UniProt Q96EB6); test: SIRT1 desuccinylation reaction, trypsin coupled assay with Ac-SucLys-AMC; type: biochemical; settings: succinyl substrate
T1 construct: SIRT1 (193–747) and SIRT5 (51–301) were cloned into the pLIC-His expression vector; His tag (pLIC-His vector); made in house; host or cells: E. coli BL21(DE3) Star
T1 sequence (Q96EB6 193-747): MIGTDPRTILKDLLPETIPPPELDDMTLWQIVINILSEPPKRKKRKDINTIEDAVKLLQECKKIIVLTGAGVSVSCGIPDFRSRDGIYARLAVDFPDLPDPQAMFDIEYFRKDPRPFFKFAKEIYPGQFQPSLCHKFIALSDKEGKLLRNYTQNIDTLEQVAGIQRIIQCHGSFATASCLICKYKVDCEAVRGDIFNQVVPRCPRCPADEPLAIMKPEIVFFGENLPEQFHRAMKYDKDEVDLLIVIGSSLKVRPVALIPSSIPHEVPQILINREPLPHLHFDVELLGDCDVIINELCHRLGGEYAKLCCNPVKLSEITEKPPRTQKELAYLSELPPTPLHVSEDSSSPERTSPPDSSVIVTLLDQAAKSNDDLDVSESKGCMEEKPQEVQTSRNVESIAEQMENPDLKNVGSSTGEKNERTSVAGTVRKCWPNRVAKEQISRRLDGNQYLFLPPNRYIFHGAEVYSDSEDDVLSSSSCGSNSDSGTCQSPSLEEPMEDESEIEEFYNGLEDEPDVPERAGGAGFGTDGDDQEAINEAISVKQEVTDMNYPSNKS
Description: (§1) The sirtuin catalyzed deacetylase and desuccinylase reactions were measured via the trypsin coupled assay system as described by Madsen et al. The enzyme reactions were carried out at 25°C in 50 mM Tris-HCl assay buffer, pH 8.0, containing 137 mM NaCl, 2.7 mM KCl, 1 mM MgCl2, and 1 mg/mL bovine serum albumin. Since trypsin was used as a coupling enzyme, its concentration was optimized to ensure the emergence of minimal or negligible lag-phase prior to the onset of the steady state phase. The bi-substrate kinetic experiments were performed by varying the concentrations of NAD^+ (from 100 to 500 μM) and Ac-SucLys-AMC or Fluor-de-lys® substrates (from 100 μM to 1200 μM) using 0.8 μM trypsin as the coupling enzyme. The steady state rates of the enzyme catalyzed reactions were derived from the time dependent changes in the fluorescence signal, and the data were analyzed by the ternary complex kinetic mechanism (Eq 4) via Grafit 4 software.

SIRT5 Y102A [2] = target: T2, SIRT5 Y102A (Homo sapiens, UniProt Q9NXA8, Y102A); test: SIRT5 Y102A desuccinylation reaction, trypsin coupled assay with Ac-SucLys-AMC; type: biochemical
T2 construct: SIRT1 (193–747) and SIRT5 (51–301) were cloned into the pLIC-His expression vector; His tag (pLIC-His vector); made in house; host or cells: E. coli BL21(DE3) Star
T2 sequence (Q9NXA8 51-301 Y102A): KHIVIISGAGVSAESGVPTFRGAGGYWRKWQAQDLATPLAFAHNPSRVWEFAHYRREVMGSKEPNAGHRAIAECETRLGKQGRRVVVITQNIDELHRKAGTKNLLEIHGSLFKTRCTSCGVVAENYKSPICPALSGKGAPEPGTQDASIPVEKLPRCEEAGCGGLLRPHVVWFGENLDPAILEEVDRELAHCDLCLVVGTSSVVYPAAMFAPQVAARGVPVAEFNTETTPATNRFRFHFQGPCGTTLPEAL
Description: (§2) The sirtuin catalyzed deacetylase and desuccinylase reactions were measured via the trypsin coupled assay system as described by Madsen et al. […] Since trypsin was used as a coupling enzyme, its concentration was optimized to ensure the emergence of minimal or negligible lag-phase prior to the onset of the steady state phase. […] The steady state rates of the enzyme catalyzed reactions were derived from the time dependent changes in the fluorescence signal, and the data were analyzed by the ternary complex kinetic mechanism (Eq 4) via Grafit 4 software.
(§3) The steady-state kinetic data were fitted globally by the competitive, mixed, and noncompetitive inhibition models using the DYNAFIT software based on the rapid-equilibrium approximation. All the parameters were allowed to float except for the enzyme concentration. The software utilizes several model-discrimination criteria, including the second order Akaike Information Criterion (AIC), so that the best model out of the three different candidates could be identified.
(§4) Other reaction conditions were the same as described above. The data were fitted by Eq 5 by Grafit 4.0.

SIRT5 wild type [3] = target: T3, SIRT5 wild type (Homo sapiens, UniProt Q9NXA8); test: SIRT5 wild type desuccinylation reaction, trypsin coupled fluorescence assay with Ac-SucLys-AMC; type: biochemical; settings: for IC50: SIRT5 desuccinylation
T3 construct: SIRT1 (193–747) and SIRT5 (51–301) were cloned into the pLIC-His expression vector; His tag (pLIC-His vector); made in house; host or cells: E. coli BL21(DE3) Star
T3 sequence (Q9NXA8 51-301): T2 sequence (Q9NXA8 51-301 Y102A) with A52Y
Description: as §2, §3, §4

SIRT5 R105I [4] = target: T4, SIRT5 R105I (Homo sapiens, UniProt Q9NXA8, R105I); test: SIRT5 R105I desuccinylation reaction, trypsin coupled assay with Ac-SucLys-AMC; type: biochemical
T4 construct: SIRT1 (193–747) and SIRT5 (51–301) were cloned into the pLIC-His expression vector; His tag (pLIC-His vector); made in house; host or cells: E. coli BL21(DE3) Star
T4 sequence (Q9NXA8 51-301 R105I): T2 sequence (Q9NXA8 51-301 Y102A) with A52Y, R55I
Description: as §1
(§5) The steady-state kinetic data were fitted globally by the competitive, mixed, and noncompetitive inhibition models using the DYNAFIT software based on the rapid-equilibrium approximation. All the parameters were allowed to float except for the enzyme concentration. […]

SIRT5 Y102A [5] = target: T2, SIRT5 Y102A; test: SIRT5 Y102A deacetylation reaction, trypsin coupled assay with Fluor-de-lys; type: biochemical
Description: as §2, §3, §4

SIRT5 Y102A/R105I [6] = target: T5, SIRT5 Y102A/R105I (Homo sapiens, UniProt Q9NXA8, R105I/Y102A); test: SIRT5 Y102A/R105I deacetylation reaction, trypsin coupled assay with Fluor-de-lys; type: biochemical
T5 construct: SIRT1 (193–747) and SIRT5 (51–301) were cloned into the pLIC-His expression vector; His tag (pLIC-His vector); made in house; host or cells: E. coli BL21(DE3) Star
T5 sequence (Q9NXA8 51-301 Y102A/R105I): T2 sequence (Q9NXA8 51-301 Y102A) with R55I
Description: as §2, §3, §4

SIRT5 R105I [7] = target: T4, SIRT5 R105I; test: SIRT5 R105I deacetylation reaction, trypsin coupled assay with Fluor-de-lys; type: biochemical
Description: as §2, §3, §4

SIRT5 wild type [8] = target: T3, SIRT5 wild type; test: SIRT5 wild type deacetylation reaction, trypsin coupled fluorescence assay with Fluor-de-lys; type: biochemical; settings: 50 μM EX527; substrate not stated in the sentence (method: 100 μM Fluor-de-lys, 500 μM NAD^+)
Description: as §1, §5

SIRT5 Y102A/R105I [9] = target: T5, SIRT5 Y102A/R105I; test: Isothermal titration calorimetry, binding of EX527 to SIRT5 Y102A/R105I; settings: ITC
Description: (§6) Isothermal titration calorimetric experiment was performed in duplicates on a VP-ITC device (Microcal Inc., Northampton, MA). Prior to the titration experiment, both enzyme and inhibitor were thoroughly degassed under vacuum. The sample cell was filled with 1.8 mL (effective volume = 1.4 mL) of 20 μM Y102A/R105I mutant SIRT5 and 0 or 10 mM NAD^+ in 50 mM HEPES buffer, pH 7.5, containing 100 mM NaCl, 10% glycerol and 1 mM TCEP. […] The data were analyzed by the ITC data analysis module of Origin Software using the single-site binding model as described by Wiseman et al. All the parameters were allowed to vary during the curve-fitting. […] The binding free energy (ΔG°) and the entropic (ΔS°) changes were calculated by Eqs 6 and 7, respectively ΔG°=−RTlnKa (6) ΔS°=ΔH°−ΔG°/T (7)
The latter value translates to the ΔG° of binding as being equal to −7.3 ± 0.1 kcal/mol. Given the ΔH° and ΔG° values, the TΔS° was calculated to be 2.03 kcal/mol.

wild type SIRT5 = target: T6, wild type SIRT5 (Homo sapiens, UniProt Q9NXA8); test: Isothermal titration calorimetry, binding of EX527 to wild type SIRT5; settings: ITC, either in the absence or the presence of NAD^+ (10 mM)
T6 construct: SIRT1 (193–747) and SIRT5 (51–301) were cloned into the pLIC-His expression vector; His tag (pLIC-His vector); made in house; host or cells: E. coli BL21(DE3) Star
T6 sequence (Q9NXA8 51-301): T2 sequence (Q9NXA8 51-301 Y102A) with A52Y

SIRT1 [10] = target: T1, SIRT1; test: SIRT1 deacetylation reaction, trypsin coupled assay with Fluor-de-lys; type: biochemical; settings: for IC50: SIRT1 deacetylation
Description: as §2, §3, §4

SIRT5 = system: SIRT5; design: method as in PMID 22583019; settings: same succinylated substrate, fixed substrate concentration; read-out: Km,NAD (apparent); cited from earlier work
SIRT5-substrate complex = target: T7, SIRT5-substrate complex (Homo sapiens, UniProt Q9NXA8); test: Isothermal titration calorimetry, binding of nicotinamide to SIRT5-substrate complex; settings: ITC, 20 μM SIRT5 in the presence of 1 mM Ac-Suclys-AMC
T7 construct: SIRT1 (193–747) and SIRT5 (51–301) were cloned into the pLIC-His expression vector; His tag (pLIC-His vector); made in house; host or cells: E. coli BL21(DE3) Star
T7 sequence (Q9NXA8 51-301): T2 sequence (Q9NXA8 51-301 Y102A) with A52Y
Description: as §6, with “vacuum.” for “vacuum. The sample cell was filled with 1.8 mL (effective volume = 1.4 mL) of 20 μM Y102A/R105I mutant SIRT5 and 0 or 10 mM NAD^+ in 50 mM HEPES buffer, pH 7.5, containing 100 mM NaCl, 10% glycerol and 1 mM TCEP.”
(TIF) Click here for additional data file.

[11] = desuccinylation, succinyl substrate
[12] = deacetylation, acetylated substrate, at 800 μM nicotinamide
[13] = deacetylation, against NAD^+, 500 μM Fluo-de-lys, NAD^+ 200 to 1300 μM
[14] = deacetylation, against NAD^+, 100 μM Fluo-de-lys, NAD^+ 40 to 300 μM

## CC(=O)N[C@@H](CCCCNC(=O)CCC(=O)O)C(=O)Nc1ccc2c(C)cc(=O)oc2c1 [Ac-SucLys-AMC]
SIRT1 [1]
  desuccinylase activity: no detectable desuccinylase activity
SIRT5 Y102A [2]; [11]
  kcat: 27.4 ± 4.9 ×10^−5 s^-1
SIRT5 Y102A [2]; desuccinylation, succinyl substrate, read-out: Km,sub
  Km: 300 ± 54 µM
SIRT5 wild type [3]; [11]
  kcat: 383.2 ± 38.3 ×10^−5 s^-1
SIRT5 wild type [3]; desuccinylation, succinyl substrate, 25°C, pH 8.0, read-out: Km,sub
  Km: 290 ± 29 µM

## NC(=O)C1CCCc2c1[nH]c1ccc(Cl)cc21 (centres unmarked) [EX527, 6-chloro-2,3,4,9-tetrahydro-1H-carbazole-1-carboxamide]
SIRT5 R105I [4]
  inhibition at 50 µM: ~22%
SIRT5 Y102A [5]
  inhibition at 50 µM: ~14%
SIRT5 Y102A/R105I [6]
  IC50: 0.0217 ± 0.001 mM
SIRT5 R105I [7]
  inhibition at 50 µM: ~22%
SIRT5 Y102A [2]; 50 μM EX527, succinylated substrate
  inhibition by EX527: no inhibition
SIRT5 wild type [8]
  inhibition by EX527: not inhibited
SIRT5 Y102A/R105I [9]; in the absence of NAD^+
  binding: binds weakly
SIRT5 Y102A/R105I [9]; presence of 10 mM NAD^+, pH 7.5, 25°C
  ΔH°: -22.2 ± 0.42 kJ/mol
SIRT5 Y102A/R105I [9]; presence of 10 mM NAD^+, pH 7.5, 25°C, single site binding model
  stoichiometry n: 1.2
SIRT5 Y102A/R105I [9]; presence of 10 mM NAD^+, calculated from Ka
  ΔG° of binding: -30.5 ± 0.42 kJ/mol
SIRT5 Y102A/R105I [9]; presence of 10 mM NAD^+, calculated from ΔH° and ΔG°
  TΔS°: 8.49 kJ/mol
Wild type SIRT5
  binding (heat signals): only miniscule heat signals

## NC(=O)c1ccncc1 [isonicotinamide]
SIRT1 [10]; in the presence of 50 μM NAD^+
  IC50: 7 ± 2.9 mM
SIRT1 [10]; in the presence of 5 mM NAD^+
  IC50: 8.9 ± 3.3 mM
SIRT5 wild type [3]; in the presence of 50 μM NAD^+
  IC50: 11.1 ± 2.2 mM
SIRT5 wild type [3]; in the presence of 5 mM NAD^+
  IC50: 17.1 ± 4 mM

## NC(=O)c1ccc[n+]([C@@H]2O[C@H](COP(=O)([O-])OP(=O)(O)OC[C@H]3O[C@@H](n4cnc5c(N)ncnc54)[C@H](O)[C@@H]3O)[C@@H](O)[C@H]2O)c1 [NAD, nicotinamide adenine dinucleotide]
SIRT5
  Km: 150 ± 45 µM

## NC(=O)c1cccnc1 [Nicotinamide]
SIRT5 Y102A [5]; [12]
  % inhibition: N/A, 36% inhibition at 800μM
  inhibition at 800 µM: ~36%
SIRT5 Y102A/R105I [6]; [13]
  Inhibition Mode: Mixed
  Ki’ (mixed inhibition): 0.2672 ± 0.0524 mM
SIRT5 R105I [7]
  inhibition at 800 µM: 40%
SIRT5 Y102A [2]; desuccinylation, against NAD^+, 500 μM Ac-SucLys-AMC, NAD^+ 70 to 800 μM
  Inhibition Mode: Competitive
SIRT1 [10]; [14]
  Inhibition Mode: Mixed
  Ki’ (mixed inhibition): 0.3405 ± 0.1024 mM
SIRT5 wild type [3]; desuccinylation, against NAD^+, 100 μM Ac-SucLys-AMC, NAD^+ 40 to 300 μM
  Inhibition Mode: Competitive
SIRT5-substrate complex
  Ka: (2.5 ± 0.3) × 10^4 M^-1
